# Values quoted from earlier work in US9617305B2 (priority 2011, dated 2017).
# Where a SMILES comes first, the peptide text is derived from it. Bridges are numbered along the chain shown (N, C = ends).
# Conditions: after oral administration at therapeutic dose levels
structure (smiles),measurement,value
"C[C@@H]1NC(=O)[C@@H]2CCCN2C(=O)[C@H](CC(N)=O)NC(=O)[C@@H]2CSSC[C@H](N)C(=O)N[C@H]3CSSC[C@H](NC1=O)C(=O)N[C@@H]([C@@H](C)O)C(=O)NCC(=O)N[C@H](C(=O)N[C@@H](Cc1ccc(O)cc1)C(=O)O)CSSC[C@H](NC(=O)[C@H](Cc1ccc(O)cc1)NC(=O)[C@H](CCC(=O)O)NC3=O)C(=O)N2 [linaclotide, Linaclotide] (H-CCEYCCNPACTGCY-OH; disulfide 1-6, 2-10, 5-13)",levels of linaclotide seen systemically,no detectable levels
